Laboratory results: patent publication US20040096456A1, “Method to treat hemophilia” (priority 2003, published 2004)

Key:
CD4^+ splenocytes = assay: Proliferation assay of CD4+ splenocytes from hemophilia A mice exposed to human fVIII; type: cell-based, mouse; details: for proliferative response, ^3H-thymidine incorporation (FIG. 2): CD4^+ splenocytes from hemophilia A mice immunized with human fVIII, representative experiment; for proliferative response of pooled CD4^+ splenocytes: hemophilia A mice immunized by multiple subcutaneous injections of 5-10 μg recombinant human fVIII in Freund's adjuvant, four independent groups
Description: Mice were treated up to 10 times intravenously with 1 μg of purified recombinant human fVIII. CD8^+ depleted spleen cells (so as to leave only CD4^+ T cells; hereafter referred to as “CD4^+ splenocytes”) were used in proliferation assays to test the response to increasing concentrations of fVIII (5-20 nM) and to pools of overlapping synthetic peptides, spanning the sequence of the individual the fVIII domains (fVIII domain pools). Also, the cytokines secreted by CD4^+ splenocytes, after challenge in vitro with fVIII, were determined. The anti-fVIII antibody was measured in the sera as well as their IgG subclass (by ELISA). The inhibitors were measured by the Bethesda assay (Kasper et al., 1975).
Epitope Repertoire on Human fVIII Recognized be CD4^+ Cells from Hemophilia A Mice. The epitope repertoire of the CD4^+ cells sensitized to human fVIII in hemophilia A mice was examined. Mice were immunized by multiple subcutaneous injections of 5-10 μg recombinant human fVIII, emulsified in Freund's adjuvant. This ensured a stronger sensitization of the CD4^+ cells than that obtained after intravenous administration of fVIII. The use of CD4+ splenocytes from mice strongly sensitized to fVIII increases the chances of identifying a comprehensive CD4^+ repertoire, because the CD4^+ cells recognizing individual epitopes on an antigen are scarce among unselected CD4^+ splenocytes.
Four independent groups of 2 to 4 hemophilia A mice were immunized. For each group their CD4^+ splenocytes were pooled, and tested for their proliferative response to fVIII, and to the individual synthetic peptides spanning the sequence of human fVIII. Because of the large number of peptides, all the peptides were tested only in one experiment. In two experiments, peptides spanning the A and C domains were tested. In a fourth experiment, only peptides spanning the Al domain were tested.

CD4^+ blood lymphocytes = assay: 5 day proliferation assay of CD4+ blood lymphocytes with individual A3 and C2 peptides; type: cell-based, human; details: for individual A3 peptides recognized by both patients (FIG. 4): hemophilia A patients with inhibitors # 5 and # 8, peptide 2 μg
From the text: Subiects. Six HIV negative severe hemophilia A patients (3 with inhibitors and 3 without), 4 acquired hemophilia patients (Table 4) and 6 healthy subjects (3 men and 3 women, 34-48 years old) were studied. The acquired hemophilia patients had not received fVIII during the period of time when we studied their CD4^+ response to the fVIII peptides. Among hemophilia A patients, patient #8 had received immune tolerance therapy with high doses of fVIII. The last high dose of fVIII administered as part of the immune tolerance therapy was given approximately 8 months before the first experiment reported here. […] Patient #9 received a prophylactic regimen of weekly injections of standard therapeutic doses of fVIII. All other patients were self treated on an as needed basis. In several hemophilic and healthy subjects we tested the response of CD4^+ blood lymphocytes to fVIII peptides on more than one occasion, at intervals that ranged from a few weeks to several months.
Peripheral blood mononuclear cells (PBMC) were isolated from venous blood and depleted them of CD8^+ T cells (Manfredi et al., 1993), using anti-human CD8 antibody (OKT8; Ortho Diagnostic Systems, Raritan, N.J. or Ancell, Bayport, Minn.) and paramagnetic beads coated with goat anti-mouse IgG antibody (PerSeptive Biosystems, Framingham, Mass.). The CD8^+ depleted PBMC (CD4^+ blood lymphocytes) were used for 5 day proliferation assays (Manfredi et al., […]), using sextuplet wells (2×10^5 cells/well; when cell yield was low, a minimum of 1×10^5 cells/well) and the following stimulants: phytohemagglutinin (Sigma; 10 μg/mL), T cell growth factor (Lymphocult; Biotest Diagnostic Corp., Danville, NJ; final concentration of interleukin 2, 10 U/mL), recombinant human fVIII (Baxter, Glendale, Calif. or Bayer, Elkhart, Ind.; 0.5-1 units/mL; normal plasma concentration: I unit/mL), and the synthetic fVIII peptides, both individually and in pools as described above (final concentration 2 μg/mL of each peptide). Sextuplet wells cultured without any stimulus provided the basal proliferation rate of the cells. We measured cell proliferation from the incorporation of ^3H-thymidine (1 μCi per well, specific activity 6.7 Ci/mmol; Dupont-NEN, Boston, Mass.), expressed as counts per minute (cpm). When an antigen induced a statistically significant (p<0.05) increase in proliferation (assessed using a two-tailed Student's t test), we calculated the stimulation index (SI: ratio between average cpm of cultures in the presence of the antigen and average basal proliferation of the same cells). The use of SI normalizes results, and allows comparison of experiments carried out at different times, and with different subjects.

[1] = healthy subject #8, second experiment

521-540: 20-residue synthetic peptide, residues 521-540 of the A2 domain of human fVIII (PTKSDPRCLTRYYSSFVNME; UniProt P00451 540-559, looked up, fragment)
proliferative response, ^3H-thymidine incorporation (FIG. 2) (CD4^+ splenocytes): recognized

531-550: 20-residue synthetic peptide, residues 531-550 of the A2 domain of human fVIII (RYYSSFVNMERDLASGLIGP; UniProt P00451 550-569, looked up, fragment)
proliferative response, ^3H-thymidine incorporation (FIG. 2) (CD4^+ splenocytes): recognized

2141-2160: 20-residue synthetic peptide, residues 2141-2160 of the C1 domain of human fVIII (NPPIIARYIRLHPTHYSIRS; UniProt P00451 2160-2179, looked up, fragment)
proliferative response of pooled CD4^+ splenocytes (CD4^+ splenocytes): recognized clearly and consistently in all or most experiments

AEPRKNFVKPNETKTYFWKV (listed as Homo sapiens) [1801-1820]
individual A3 peptides recognized by both patients (FIG. 4) (CD4^+ blood lymphocytes): recognized also by patient # 8

CLIGEHLHAGMSTLFLVYSN (listed as Homo sapiens) [2001-2020]
A3 peptides that elicited the strongest response of CD4^+ lymphocytes (CD4^+ blood lymphocytes; Hemophilia A without Inhibitors, Patient 9, t = 1): 2001-2020

DLNSCSMPLGMESKAISDAQ (listed as Homo sapiens) [peptide 2171-2190]
recognition by CD4^+ cells (CD4^+ blood lymphocytes; patient # 8, hemophilia A with inhibitors, C2 peptides): recognized

FATWSPSKARLHLQGRSNAW (listed as Homo sapiens) [peptide 2201-2220]
proliferative response, ^3H-thymidine incorporation (FIG. 2) (CD4^+ splenocytes): recognized
proliferative response of pooled CD4^+ splenocytes (CD4^+ splenocytes): recognized clearly and consistently in all or most experiments

FDCKAWAYFSDVDLEKDVHS (listed as Homo sapiens) [1831-1850]
A3 peptides that elicited the strongest response of CD4^+ lymphocytes (CD4^+ blood lymphocytes; Acquired Hemophilia, Patient 1, t = 2): 1831-1850
recognition by CD4^+ cells (CD4^+ blood lymphocytes; patients #1 and #2 (acquired hemophilia), in some experiments): recognized

FTPVVNSLDPPLLTRYLRIH (listed as Homo sapiens) [2291-2310]
C2 peptides that elicited the strongest response of CD4^+ lymphocytes (CD4^+ blood lymphocytes; Healthy Subjects, Subject 9, t = 1): 2291-2310

GLIGPLLVCHTNTLNPAHGR (listed as Homo sapiens) [1851-1870]
proliferative response, ^3H-thymidine incorporation (FIG. 2) (CD4^+ splenocytes): recognized

GMSSSPHVLRNRAQSGSVPQ (listed as Homo sapiens) [1711-1730]
recognition by CD4^+ cells (CD4^+ blood lymphocytes; healthy subject #2): recognized

IAAVERLWDYGMSSSPHVLR (listed as Homo sapiens) [peptide 1701-1720]
proliferative response, ^3H-thymidine incorporation (FIG. 2) (CD4^+ splenocytes): recognized
proliferative response of pooled CD4^+ splenocytes (CD4^+ splenocytes): recognized clearly and consistently in all or most experiments
recognition by CD4^+ cells (CD4^+ blood lymphocytes; [1]): recognized strongly
recognition by CD4^+ cells (CD4^+ blood lymphocytes; patient #2, another experiment): recognized
recognition by CD4^+ cells (CD4^+ blood lymphocytes; patient #8, another experiment): recognized

LHLQGRSNAWRPQVNNPKEW (listed as Homo sapiens) [2211-2230]
C2 peptides that elicited the strongest response of CD4^+ lymphocytes (CD4^+ blood lymphocytes; Hemophilia A without Inhibitors, Patient 9, t = 2): 2211-2230

MESKAISDAQITASSYFTNM (listed as Homo sapiens) [2181-2200]
C2 peptides that elicited the strongest response of CD4^+ lymphocytes (CD4^+ blood lymphocytes; Hemophilia A with Inhibitors, Patient 6, t = 1): 2181-2200

NENIHSIHFSGHVFTVRKKE (listed as Homo sapiens) [1951-1970]
individual A3 peptides recognized by both patients (FIG. 4) (CD4^+ blood lymphocytes): recognized also by patient # 8

SFQKKTRHYFIAAVERLWDY (listed as Homo sapiens) [peptide 1691-1710]
experiments in which the peptide (or one or more peptides of the sequence region) was recognized (CD4^+ blood lymphocytes; 8 experiments done with CD4^+ cells from healthy subjects): 7 of the 8
number of acquired hemophilia patients who recognized the peptide or region (CD4^+ blood lymphocytes; acquired hemophilia patients, not consistent between experiments of the same patient): 1
recognition by CD4^+ cells (CD4^+ blood lymphocytes; healthy subject #2): did not recognize
number of hemophilia A patients who strongly recognized the peptide (CD4^+ blood lymphocytes; hemophilia A patients with inhibitors): 2
number of hemophilia A patients who strongly recognized the peptide (CD4^+ blood lymphocytes; hemophilia A patients without inhibitors): 1
number of hemophilia A patients who strongly recognized the peptide (CD4^+ blood lymphocytes; hemophilia A patients, in only one of the experiments of the same patient): 3
recognition by CD4^+ cells (CD4^+ blood lymphocytes; patient #8, one experiment): recognized

VEMKKEDFDIYDEDENQSPR (listed as Homo sapiens) [1671-1690]
recognition by CD4^+ cells (CD4^+ blood lymphocytes; patient #8, another experiment): recognized

YDEDENQSPRSFQKKTRHYF (listed as Homo sapiens) [1681-1700]
recognition by CD4^+ cells (CD4^+ blood lymphocytes; [1]): recognized strongly

peptide 71-90: 20-residue synthetic peptide, residues 71-90 of the A1 domain of human fVIII (LLGPTIQAEVYDTVVITLKN; UniProt P00451 90-109, looked up, fragment)
proliferative response of pooled CD4^+ splenocytes (CD4^+ splenocytes): recognized clearly and consistently in all or most experiments

peptide 601-620: 20-residue synthetic peptide, residues 601-620 of the A2 domain of human fVIII (VQLEDPEFQASNIMHSINGY; UniProt P00451 620-639, looked up, fragment)
proliferative response, ^3H-thymidine incorporation (FIG. 2) (CD4^+ splenocytes): recognized
proliferative response of pooled CD4^+ splenocytes (CD4^+ splenocytes): recognized clearly and consistently in all or most experiments

peptide 2131-2150: 20-residue synthetic peptide, residues 2131-2150 of the C1 domain of human fVIII (DSSGIKHNIFNPPIIARYIR; UniProt P00451 2150-2169, looked up, fragment)
proliferative response, ^3H-thymidine incorporation (FIG. 2) (CD4^+ splenocytes): recognized
proliferative response of pooled CD4^+ splenocytes (CD4^+ splenocytes): recognized clearly and consistently in all or most experiments
